Source: US5461057A, “Hydro-ethano-indeno-pyridines” (priority 1994, dated 1995)
Counter-ions that a name gives are not always drawn.

Tests used:
[1] = system: LOX human melanoma cell adhesion to polylysine; assay: LOX melanoma cell adhesion to polylysine; assay type: cell-based; conditions: read-out: Poly Lys IC50
Experimental: (§1) Adhesion assays were run essentially as described previously (Pai et al., J. Biomed. Res. 2: 53, 1992). 96-well plates were coated with human fibronectin (140 ng/well), human vitronectin (75 ng/well), human collagen I (100 ng/well), human collagen IV (100 ng/well), human fibrinogen (1 μg/well), murine laminin (600 ng/well), or polylysine, and incubated overnight in a humidified 37° C. incubator. Excess fibronectin or other substrate was then removed and 0.2 ml of 2 mg/ml bovine serum albumin (BSA)in Dulbecco's phosphate-buffered saline (DPBS) was added to each well, incubated for 2 hours at 37° C., and removed. LOX human melanoma cells, M27 murine lung carcinoma cells or B16F10 mouse melanoma cells were detached from tissue culture flasks with RPMI medium containing 0.2M urea and 10 mM EDTA, and 0.18 ml of cells were added to each well to a final cell concentration of 1×10^5 cells/well. For inhibition studies 20 μl of 10× compound was added to the wells prior to cell addition. Cells were allowed to adhere for 1 hour at 37° C. The wells were then gently washed twice with 0.2 ml DPBS. The fluorescent dye calcein AM (Molecular Probes, Eugene Oreg.) in DPBS (0.1 ml of 1 μM) was added to each well, and the plates were incubated for 1 hour at room temperature. Adherent cells were quantitated by reading the fluorescence on a Cytofluor 2300 fluorescent plate reader (Millipore) at 485 nm excitation and 530 nm emission.

[2] = system: pulmonary resistance; assay: Pulmonary Resistance in the Anesthetized Rat; assay type: in vivo; conditions: 0.5 mpk, i.v., mean of 5 animals, % decrease in pre-drug baseline resistance; for inhibition in vivo at 0.5 mg/kg: Rattus norvegicus, iv, read-out: Pulmonary Resistance in Rats, % Inhibition
Experimental: Rats (400-500 g) anesthetized with dialurethane were surgically prepared with tracheal and esophageal catheters. These catheters were connected to pressure transducers for recording of air flow, tracheal and esophageal pressures. These pressures formed the basis for measurement of pulmonary resistance. Inhibition of pulmonary resistance is a reflection of bronchodilation.
All compounds were tested i. v. in 5 separate animals. All data are expressed in % decrease in the pre-drug baseline resistance and each number given is the mean of the 5 animals tested.
The model is sensitive to bronchodilator activity.
Further information relating this test can be obtained from the following publications which are hereby incorporated by reference: Comroe et al, J. Appl. Physio. 4:439-44 (1959); Dungan et al J. Pharmacol. Exp. Therap. 164:290-301(1968); and Mead, J. et al. J. Appl. Physio. 5:779-796 (1953).

[3] = Calcein cytotoxicity assay; assay type: cell-based; conditions: human, lox melanoma cells; 2 hours, calcein AM assay; read-out: 2 Hr Tox LD50
Experimental: LOX human melanoma cells were detached from tissue culture flasks with RPMI medium containing 0.2M urea and 10 mM EDTA, and 0.18 ml of cells were added to each well to a final cell concentration of 5×10^4 cells/well. 20 μl of 10× compound was added to the wells prior to cell addition. Cells were incubated with the compound at 37° C. for 1 hour or 5 hour as indicated. Calcein AM in DPBS (0.02 ml of 5 μM) was added to each well, and the plates were incubated for an additional 1 hour at room temperature. Viable cells were quantitated by reading the fluorescence on a Cytofluor 2300 fluorescent plate reader at 485 nm excitation and 530 nm emission.

[4] = system: LOX human melanoma cell adhesion to human fibronectin; assay: LOX melanoma cell adhesion to fibronectin; assay type: cell-based; conditions: Homo sapiens, LOX; for inhibition at 10 µM: read-out: % Inhibition at 10 μM; for inhibition at 50 µM: read-out: % Inhibition at 50 μM; for IC50: Table 4, 1 hour adhesion, read-out: LOX FN IC50
Experimental: as §1
LOX FN-IC50 value for inhibition of adhesion of LOX human melanoma cells to fibronectin coated on a plastic surface.

[5] = system: histamine-induced dyspnea; assay: Bronchodilator (in vivo) Guinea Pig Dyspnea; conditions: oral, one hour before histamine challenge
Experimental: Unanesthetized guinea pigs (250-350 g), fasted overnight were placed in individual closed aerosol chambers which were connected to a Monoghan Ultrasonic nebulizer. The nebulizer can deliver an ultrasonic fog of uniform particles in a range of 1-8 microns. A 0.1% solution of histamine is aerosolized into the chambers causing the guinea pigs to develop dyspnea. The test drug was given orally one hour before the histamine challenge and the onset of dyspnea was recorded. Saline control animals developed dyspnea within 90-120 seconds of aerosol exposure. […] The data was expressed as the number tested over the number survived. The model was sensitive to bronchodilator and H1 antihistamine activity. Further information relating this test can be obtained from the following two publications which are hereby incorporated by reference: Dungan, K. W. and Lish, P. M. J Allergy 32:139-151 (1961). and Lish, P. M., Robbins, S. I. and Petres E. L. J. Pharmacol. Exp. Therap. 153 L 1538 (1966 ).

[6] = system: methamphetamine toxicity; assay: Methamphetamine toxicity test in mice; assay type: in vivo; conditions: Mus musculus, read-out: METHA ED50
Experimental: The methamphetamine toxicity test in mice was carried out as described in Burn et al, Arch. Int. Pharmacodyn 113:290-295, (1958); and Coscia et al, Arzneim-Forsch (Drug Research) 25:1436-1442, (1975); which are hereby incorporated by reference.
(§2) The results for this test are given below as ED50's in the units of mg/kg.
METHA refers to the methamphetamine toxicity test in mice;

[7] = system: acetic acid-induced writhing; assay: Acetic Acid Writhing Test in Mice; assay type: in vivo, mouse; conditions: Mus musculus, po, read-out: WRITH ED50
Source text: The blockade of writhing induced by the intraperitoneal injection of acetic acid is an established experimental animal model for the screening of antinociceptive drugs (drugs which prevent the appreciation or transmission of pain sensations).
The procedure for the Acetic Acid Writhing Test in Mice is set forth in Hendershot et al, J. Pharmacol. Exp. Therap. 125:237, (1959); Koster et al., Fed. Proc. 18:412, (1959); and international application PCT/US91/06705, filed 20 Sep. 1991, which are hereby incorporated by reference.
The results for this test are given below in the units of mg/kg which is also abbreviated in this specification as mpk. The results for this test are given as effective doses (ED50 's).

[8] = system: metrazole; assay: Anti-metrazole test in mice; assay type: in vivo, mouse; conditions: Mus musculus, read-out: MTZ ED50
Experimental: The anti-metrazole test in mice was carried out as described in Everett et al, J. Pharmacol. Exp. Therap. 81:402-407 (1944); which is hereby incorporated by reference.
as §2

[9] = system: TBZ-induced ptosis; assay: Effects on tetrabenazine (TBZ)-induced ptosis in mice; assay type: in vivo, mouse; conditions: for ED50: Mus musculus, po
Source text: Clinically active antidepressant drugs are known to block TBZ-induced ptosis in mice (See Psychosomatic Medicine, Nodine and Moyer, Eds. Lea and Febiger, Philadelphia, 1962, pp 683-90, which is hereby incorporated by reference). Activity in this test is used to predict anti-depressant activity in man.
The procedure for the TBZ-Induced Ptosis Test in Mice is set forth in Psychosomatic Medicine, Nodine and Moyer, Eds. Lea and Febiger, which is hereby incorporated by reference and in PCT/US91/06705, filed 20 Sep. 1991, which is mentioned above.
The results for this test are given below as ED50 's in the units of mg/kg.
TBZ refers to the test of effects on tetrabenazine induced ptosis in mice, p.o.;

[10] = Cavia porcellus, 1 h, 100 mg/kg, read-out: DYSP survivors (converted)

Row | Compound | IC50 [1] [µM] | Pulmonary Resistance in Rats, % Inhibition [2] [%] | CC50 at 2 h [3] [µM] | inhibition at 10 µM [4] [%] | inhibition at 50 µM [4] [%] | IC50 [4] [µM] | DYSP survivors ([5]; 100 mg/kg) | ED50 [6] [mg/kg] | ED50 [7] [mg/kg] | ED50 [8] [mg/kg] | ED50 [9] [mg/kg] | responders at 50 mg/kg ([5]; Cavia porcellus, 1 h, 50 mg/kg, read-out: DYSP survivors (converted)) [%] | responders at 100 mg/kg [5, 10] [%] | observation in TBZ test (footnote c) ([9]; p.o., at the dose of 30 marked c) | DYSP survivors ([5]; 30 mg/kg) | DYSP survivors ([5]; 60 mg/kg) | inhibition in vivo at 0.5 mg/kg [2] [%] | DYSP survivors ([5]; 50 mg/kg)
1 | CN1C2CCC1C1C(=C(c3ccc(Cl)c(C(F)(F)F)c3)c3ccccc31)C2 (stereo not drawn) [Compound N] | 25.3 | 33 | 23.8 | 7 | 101 | 19.4 | 0/3 | – | – | – | – | – | – | – | – | – | – | –
2 | COc1ccc2c(c1)C(c1ccccc1)C1=C2C2CCC(C1)N2 (stereo not drawn) [FF] | – | 2 | – | – | – | – | 0/3 | > 30 | > 30 | > 30 | > 30 | – | – | – | – | – | – | –
3 | COc1ccc(C2(O)c3ccccc3C3C4CCC(CC32)N4)cc1 (stereo not drawn) [JJ] | – | – | – | 10.1 | 33.7 | – | – | > 30 | > 30 | > 30 | > 30 | 33.3 | 66.7 | – | – | – | – | –
4 | CN1C2CCC1C1C(=C(c3ccc(F)cc3)c3ccccc31)C2 (stereo not drawn) [K] | 71.6 | 34 | 116 | 27.6 | 100 | 15.5 | 3/3 | 14.9 | – | > 30 | > 30 | – | – | animals were ataxic and depressed at this dose | 0/3 | 1/3 | – | –
5 | CN1C2CCC1C1C(=C(c3cccc(C(F)(F)F)c3)c3ccccc31)C2 (stereo not drawn) [L, 1 (SR):3(RS)-1,3-Ethano-2-methyl-5-(m-trifluoromethylphenyl)-1,3,4,9b-tetrahydro-H-indeno[1,2-c] pyridine. HCl 0.75H2 O.] | 80.4 | – | 29.7 | 23.7 | 100 | 20 | – | – | – | – | – | – | 100 | – | – | – | 14 | –
6 | CN1C2CCC1C1C(=C(c3cccc(F)c3)c3ccc(F)cc31)C2 (stereo not drawn) [P] | 297 | 12 | 64.3 | -2.4 | 99.8 | 11.7 | – | – | – | – | – | – | – | – | – | – | – | 0/3
7 | COc1ccc(C2=C3CC4CCC(C3c3ccccc32)N4C)cc1 (stereo not drawn) [R] | 112 | 26 | 138 | -27.3 | 97.1 | 15 | 1/3 | > 30 | > 30 | > 30 | 17.3 | – | – | – | – | – | – | –
8 | COc1ccc2c(c1)C1C3CCC(CC1C2(O)c1ccccc1)N3C (stereo not drawn) [UU] | – | – | – | 10.3 | 15.9 | – | – | > 30 | 17.3 | > 30 | > 30 | – | – | – | – | – | 2 | –
9 | COc1ccc2c(c1)C(c1ccccc1)=C1CC3CCC(C12)N3C (stereo not drawn) [V] | – | – | – | – | – | – | 0/3 | – | – | – | > 30 | – | – | – | – | – | – | –
10 | COc1ccc2c(c1)C1=C(CC3CCC1N3C)C2c1ccccc1 (stereo not drawn) [Z] | > 250 | – | > 250 | -27.6 | 67 | 28.1 | 0/3 | > 30 | 17.3 | > 30 | > 30 | – | – | – | – | – | – | –
